Experimental findings from patent US20120059005A1, “COMBINATION OF (A) A PHOSPHOINOSITIDE 3-KINASE INHIBITOR AND (B) AN ANTIDIABETIC COMPOUND FOR USE IN THE TREATMENT OF PROLIFERATIVE DISEASES” (NOVARTIS AG, priority 2009, published 2012) are described below.

Molecules are shown by their SMILES. Like-named read-outs stand apart in the source and are kept apart here.

The procedure of data set [1]: 0.2 mL of H520 tumor cell suspension (1×10^7 cells) is injected subcutaneously in the right flank of 8-week old female nu/nu (nude) mice (Harlan Laboratories, Indianapolis, Ind.) having a body weight (BW) range of 18.1-26.9 g on Day 1 of the study. Tumors are monitored twice weekly and then daily as their mean volume approaches 120-180 mm^3. […] Tumor weight can be estimated with the assumption that 1 mg is equivalent to 1 mrn^3 of tumor volume.
The 11 groups of nude mice are treated as follows. One group of eight mice serves as Controls (C or Control) for all analyses and is administered intraperitoneally (i.p.) 50 mM sodium acetate at pH 4 (Vehicle 1) and then administered by oral gavage (p.o.) a composition comprising 10% N-methylpyrrolidone: 90% polyethylene glycol 300 (PEG 300) (Vehicle 2). […] Metformin is dissolved in 50 mM sodium acetate at pH 4 for dosing,
Compound C is stored at −20° C. protected from light. Stock solutions (10×) in 100% N-methylpyrrolidone (NMP) are prepared every five days, aliquotted, and stored in the dark at room temperature. On each treatment day, stock solution aliquots are diluted with polyethylene glycol (PEG300) to provide the formulated drug (Compound A or Compound C) in 10% NMP: 90% PEG300, Dosing solutions are protected from light and the formulated drug is administered within 1 hour after preparation.
For combination therapies, Compound A or Compound C is administered by oral gavage (p.o.) within 30 minutes after the intraperitoneal (i.p.) administration of metformin, except on Day 20 when Compound A or Compound C is given immediately after metformin.
Paclitaxel (Natural Pharmaceuticals, Inc., Beverly, Mass., USA) is administered by bolus tail-vein injections (i.v.) once daily on alternate days for five doses. Paclitaxel is dissolved in 50% ethanol and 50% Cremophor® EL to prepare a 10× stock solution stored at room temperature. On each day of dosing, an aliquot of the pad itaxel stock solution is diluted with 5% dextrose in water to yield a dosing solution containing 5% ethanol and 5% Cremophor® EL.

Data set [2] relates to A549 non-small cell lung tumors. Description: A549 xenograft 20-day tumor growth inhibition assay. The data set is classed as in vivo, nude mice. The protocol:
A549 human non-small cell lung cancer (NSCLC) cells are treated with different doses of the 2-Methyl-2-[4-(3-methyl-2-oxo-8-quinolin-3-yl-2,3-dihydro-imidazo[4, 5-c]quinolin-1-yl)-phenyl]-propionitrile monotosylate salt (also known as COMPOUND A) or 5-(2,6-di-morpholin-4-yl-pyrimidin-4-yl)-4-trifluoromethyl-pyridin-2-ylamine hydrochloride salt (also known as COMPOUND C), a single dose of metformin or both agents in combination. The A549 human NSCLC cells (ATCC-CCL-185, available from American Type Culture Collection, Rockville, Md. US) display characteristics of type II alveolar epithelial cells (Lieber et al, Int, J, Cancer 17(1): 62-70 [1976]), The A549 NSCLC cells are homozygous for mutations in the tumor suppressor genes, CDKN2A and STK11 (also called LKB1), and in KRAS. (Wellcome Trust Sanger Institute, Catalogue of Somatic Mutations in Cancer, Cosmic ID No, 905949, available at website http://www.sanger.ac.uk/peri/genetics/CGP/core_line_viewer?action=sample&name=A549.)
A549 tumor cells are grown in Kaighn's modified Ham's F12 medium containing 100 units/mL penicillin G sodium, 100 μg/mL streptomycin sulfate, 25 μg/mL gentamicin, […], 2 mM glutamine, and 1 mM sodium pyruvate. The cells are cultured in tissue culture flasks in a humidified incubator at 37° C., in an atmosphere of 5% CO2 and 95% air. The cells are harvested for injection into 9-week old female nu/nu (nude) mice (Harlan Laboratories, Indianapolis, Ind.) by detaching the monolayers with 2X trypsin and resuspending at 5×10^7cells/mL in cold phosphate-buffered saline containing 50% Matrigel.
(§1) 0.2 mL of A549 cell suspension (1×10^7 cells) is injected subcutaneously in the right flank of 9-week old female flu/flu (nude) mice (Harlan Laboratories, Indianapolis, Ind.) having a body weight (BW) range of 19.9-27.3 g on Day 1 of the study, Tumors are callipered in two dimensions to monitor their growth as their mean volume approached 150-220 mm^3, Twenty-two days after implantation, the mice are sorted into 11 groups of eight or nine mice having individual tumor sizes of 108-221 mm^3. Tumor volume in mm^3 is determined using the formula [(width)^2×(length)][…], where width width of the tumor in mm and length=length of the tumor in mm. Tumor weight can be estimated with the assumption that 1 mg is equivalent to 1 mm^3 of tumor volume.
(§2) The 11 groups of nude mice are treated as follows. One group of nine mice serves as Controls (C or Control) for all analyses and is administered intraperitoneally (i,p,) 50 mM sodium acetate at pH 4 (Vehicle 1) and then administered by oral gavage (p.o.) a composition comprising 10% N-methylpyrrolidone: 90% polyethylene glycol 300 (PEG300) (Vehicle 2). […] Metformin is dissolved in 50 mM sodium acetate at pH 4 for dosing,
(§3) Compound A and Compound C are stored at −20° C. protected from light. Stock solutions (10X) in 100% N-methylpyrrolidone (NMP) are prepared every five days, aliquotted, and stored in the dark at room temperature. On each treatment day, stock solution aliquots are diluted with polyethylene glycol (PEG300) to provide the formulated drug (Compound A or Compound C) in 10% NMP: 90% PEG300. Dosing solutions are protected from light, and the formulated drug is administered within 1 hour after preparation.
(§4) For combination therapies, Compound A or Compound C are administered by oral gavage (p.o.) within 30 minutes after the intraperitoneal (i.p.) administration of metformin , except on Day 20 when Compound A or Compound C is given immediately after metformin.
(§5) Paclitaxel (Natural Pharmaceuticals, Inc., Beverly, Mass., USA) is administered by bolus tail-vein injections (i v) once daily on alternate days for five doses. Paclitaxel is dissolved in 50% ethanol and 50% Cremophor® EL to prepare a 10X stock solution stored at room temperature. On each day of dosing, an aliquot of the paclitaxel stock solution is diluted with 5% dextrose in water to yield a dosing solution containing 5% ethanol and 5% Cremophor®EL.

How the values of data set [3] were obtained:
as §1, §2, §3, §4, §5
In all groups, the dosing volume of 10 mL/kg (0.2 mL/ 20 g mouse) is scaled to the weight of each animal as determined on the day of dosing, except on weekends when the previous BW is carried forward.
This is another data set of the same source.

[4] abbreviates: female, nu/nu (nude), mouse, in vivo, po, 41.1 mg/kg.
Setting [5] is: female, nu/nu (nude), mouse, in vivo, po, 68.5 mg/kg.
[6] abbreviates: Compound A 41.1 mg/kg p.o., 1x daily, Day 20.
The mark [7] stands for this setting: Compound A 68.5 mg/kg p.o., 1x daily, Day 20.
Where [8] appears, read: Compound C 32.7 mg/kg p.o., 1x daily, Day 20.
Setting [9] is: Compound C 54.4 mg/kg p.o., 1x daily, Day 20.
Setting [10] is: Metformin 192.3 mg/kg i.p., 1x daily, Day 20.
[11] abbreviates: Paclitaxel 30 mg/kg i.v., 1x on alternate days for 5 doses.
Setting [12] is: Paclitaxel 30 mg/kg i.v., 1x on alternate days for 5 doses, Day 20.

As for `Cn1c(=O)n(-c2ccc(C(C)(C)C#N)cc2)c2c3cc(-c4cnc5ccccc5c4)ccc3ncc21` [Compound A, 2-Methyl-2-[4-(3-methyl-2-oxo-8-quinolin-3-yl-2,3-dihydro-imidazo[4,5-c]quinolin-1-yl)-phenyl]-propionitrile], the Dead/Total in data set [1] (setting [4]) was 0/8; in data set [1] (setting [5]) it was 1/8; in data set [3] (setting [4]), 0/8; in data set [3] (setting [5]), 0/9. For the same compound, the “Mean Body Weight Change” value in data set [1] (mouse, in vivo, po, 68.5 mg/kg) is given as −1.3%, Day 7; in data set [3] (mouse, in vivo, po, 68.5 mg/kg) it was −0.8%, Day 4. Besides, the results for the “Mean Tumor Vol. Change” value in data set [2] (setting [6]) and in data set [2] (setting [7]) were 58 mm^3 and −51 mm^3, respectively. Moreover, the Regression result in data set [2] (setting [6]) is “None”; in data set [2] (setting [7]), 3 Partial. For the same compound, the T/C in data set [2] (setting [6]) is reported as 18% (ns). Besides, the T/T0 in data set [2] (setting [7]) is −31% (T/T0,.

Consider `Nc1cc(C(F)(F)F)c(-c2cc(N3CCOCC3)nc(N3CCOCC3)n2)cn1` [Compound C, 5-(2,6-di-morpholin-4-yl-pyrimidin-4-yl)-4-trifluoromethyl-pyridin-2-ylamine], for which, in data set [2] (setting [8]), the “Mean Tumor Vol. Change” value is recorded as 63 mm^3, the Regression result is “None” and the T/C is given as 20% (ns). For the same compound, in data set [2] (setting [9]), the “Mean Tumor Vol. Change” value is on record as −80 mm^3, the Regression result is “None” and the T/T0 is given as −48% (T/T0,.

On to `CN(C)C(=N)N=C(N)N` [Metformin, dimethyldiguanide, reference compound], for which the Dead/Total in data set [1] (Metformin 192.3 mg/kg i.p., 1x daily) is listed as 0/8. In data set [2] (setting [10]), the “Mean Tumor Vol. Change” value was found to be 221 mm^3 and the Regression result is recorded as “None”. Besides, the “activity in the 20-day tumor growth inhibition assay” value in data set [2] (metformin monotherapy at 192.3 mg/kg) is given as “did not appear active”. In data set [2] (mouse, in vivo), the T/C is 69% (ns). For the same compound, in data set [3] (female, nu/nu (nude), mouse, in vivo), the Dead/Total is recorded as 1/9.

Turning to `CC(=O)O[C@H]1C(=O)[C@@]2(C)[C@H]([C@H](OC(=O)c3ccccc3)[C@]3(O)C[C@H](OC(=O)[C@H](O)[C@@H](NC(=O)c4ccccc4)c4ccccc4)C(C)=C1C3(C)C)[C@]1(OC(C)=O)CO[C@@H]1C[C@@H]2O` [Paclitaxel, reference compound], the Dead/Total in data set [1] (setting [11]) was 0/8. Also, in data set [2] (setting [12]), the “Mean Tumor Vol. Change” value was 9 mm^3, the Regression entry is “None” and the T/C was determined as 3%. Further, in data set [3] (setting [11]), the Dead/Total was 0/8.
